# Measured values reported in patent US8501750B2, “Heterocyclic compound and use thereof” (Takeda Pharmaceutical Company Limited, priority 2007, dated 2013).
# Structures can show the parent of a compound that is named as a salt. Where two headings read alike, the source gives them in different places.
# What was measured:
# [1] = biological target: AT1 receptor (Homo sapiens (Human), UniProt P30556); experiment: AT1 receptor binding inhibitory action
# [2] = biological target: PPARγ (Homo sapiens (Human), UniProt P37231); experiment: PPARγ activating action (luciferase reporter in PPARγ:RXRα:4ERPP/CHO-K1 cells); assay type: cell-based; details: CHO-K1, 24 h, read-out: PPARγ activating action (activation % (1 μM))
# PPARγ, sequence (P37231 29-505): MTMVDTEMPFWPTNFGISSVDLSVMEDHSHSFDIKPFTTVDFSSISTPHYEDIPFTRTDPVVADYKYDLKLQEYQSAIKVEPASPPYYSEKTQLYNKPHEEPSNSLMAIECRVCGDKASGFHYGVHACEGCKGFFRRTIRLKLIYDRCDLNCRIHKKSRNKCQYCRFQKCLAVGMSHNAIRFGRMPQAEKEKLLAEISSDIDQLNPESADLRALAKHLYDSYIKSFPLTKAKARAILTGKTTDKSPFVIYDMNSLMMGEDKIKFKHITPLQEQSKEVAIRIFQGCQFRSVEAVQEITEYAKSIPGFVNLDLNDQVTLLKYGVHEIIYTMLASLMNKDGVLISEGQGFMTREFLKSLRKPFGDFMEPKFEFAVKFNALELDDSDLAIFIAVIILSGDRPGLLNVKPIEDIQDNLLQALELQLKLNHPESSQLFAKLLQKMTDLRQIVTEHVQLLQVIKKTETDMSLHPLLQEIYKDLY
# PPARγ, sequence (P19793 whole entry partner): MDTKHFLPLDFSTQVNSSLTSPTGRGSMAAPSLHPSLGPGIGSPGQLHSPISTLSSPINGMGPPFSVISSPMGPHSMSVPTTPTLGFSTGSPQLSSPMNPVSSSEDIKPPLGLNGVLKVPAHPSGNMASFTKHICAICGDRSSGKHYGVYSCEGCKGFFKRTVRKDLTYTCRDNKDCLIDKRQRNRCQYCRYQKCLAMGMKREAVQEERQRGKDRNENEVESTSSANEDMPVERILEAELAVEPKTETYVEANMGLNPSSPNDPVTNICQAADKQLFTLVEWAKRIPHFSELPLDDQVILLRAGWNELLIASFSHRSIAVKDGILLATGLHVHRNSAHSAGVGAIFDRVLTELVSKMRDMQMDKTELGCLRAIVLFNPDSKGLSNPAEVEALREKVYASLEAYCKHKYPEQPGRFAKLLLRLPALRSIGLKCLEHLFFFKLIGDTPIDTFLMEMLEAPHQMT
# Experimental: Then the medium was removed from the 96-well half area white plate, 45 μl of Ham's F12 medium containing 0.1% fatty acid-free bovine serum albumin (BSA) and 5 μl of test compound were added, and the cells were cultured in a CO2 gas incubator at 37° C. for 1 day. The medium was removed and 20 μl of PicaGene 7.5 [manufactured by Dainippon Ink and Chemicals Corporation, Japan] diluted 2-fold with HBSS (HANKS' BALANCED SALT SOLUTION) [manufactured by BIO WHITTAKER, USA] was added. After stirring, the luciferase activity was determined using 1420 ARVO Multilabel Counter [manufactured by PerkinElmer, USA]. […] A CHO-K1 cell cultured in a 150 cm^2 cell culture flask [manufactured by Corning Costar Corporation, USA] containing Ham's F12 medium [manufactured by INVITROGEN, USA] supplemented with 10% fetal bovine serum [manufactured by INVITROGEN, USA] was scraped by treating with 0.5 g/L trypsin-0.2 g/L EDTA (ethylenediaminetetraacetic acid) [manufactured by Life Technologies, Inc., USA], and then the cell was washed with PBS (Phosphate-buffered saline) [manufactured by INVITROGEN, USA], centrifuged (1000 rpm, 5 minutes) and suspended in PBS. Subsequently, DNA was introduced into the cell under the conditions shown below using GENE PULSER [manufactured by Bio-Rad Laboratories, USA]. […] Subsequently, the cell was transferred into a F12 medium containing 10% fetal bovine serum and cultured for 24 hours, and then the cell was scraped again and centrifuged, and then suspended in Ham's F12 medium containing 10% fetal bovine serum supplemented with 500 μg/ml of Geneticin [manufactured by INVITROGEN, USA] and 250 μg/ml of Zeocin [manufactured by INVITROGEN, USA]. The obtained suspension was diluted to the density of 10^4 cells/ml and inoculated in a 96-well plate [manufactured by Corning Costar Corporation, USA], which was cultured in a CO2 gas incubator at 37° C., whereby obtaining a Geneticin- and Zeocin-resistant transformant.
# [3] = test compound 1 μM, luciferase activity relative to control compound X (1 μM) = 100%, non-administration group = 0%
# AT1 receptor, sequence (P30556 whole entry): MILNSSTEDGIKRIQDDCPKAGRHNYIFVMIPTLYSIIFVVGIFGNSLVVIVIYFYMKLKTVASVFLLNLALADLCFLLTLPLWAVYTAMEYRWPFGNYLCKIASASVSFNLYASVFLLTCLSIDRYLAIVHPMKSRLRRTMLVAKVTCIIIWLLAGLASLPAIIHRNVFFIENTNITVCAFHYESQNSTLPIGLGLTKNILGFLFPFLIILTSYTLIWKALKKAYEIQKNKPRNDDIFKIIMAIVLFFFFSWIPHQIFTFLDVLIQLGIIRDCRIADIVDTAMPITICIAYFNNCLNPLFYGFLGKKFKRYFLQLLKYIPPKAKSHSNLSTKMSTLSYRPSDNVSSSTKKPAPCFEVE
SMILES,IC50 [1] [nM],activation at 1 µM [2] [%],"activation at 1 µM [2, 3] [%]"
"COc1ccc(C(=O)Cn2c(=O)c3cc(C4CC4)sc3n(Cc3c(F)cc(-c4ccccc4-c4noc(O)n4)cc3F)c2=O)cc1 [Ex. 135, 6-cyclopropyl-1-{[3,5-difluoro-2′-(5-oxo-4,5-dihydro-1,2,4-oxadiazol-3-yl)biphenyl-4-yl]methyl}-3-[2-(4-methoxyphenyl)-2-oxoethyl]thieno[2,3-d]pyrimidine-2,4(1H,3H)-dione potassium salt]",1.5,71,
"O=C(Cn1c(=O)c2cc(CC(F)(F)F)sc2n(Cc2ccc(-c3ccccc3-c3noc(=O)[nH]3)cc2)c1=O)C1CCCCC1 [Ex. 136, 3-(2-cyclohexyl-2-oxoethyl)-1-{[2′-(5-oxo-4,5-dihydro-1,2,4-oxadiazol-3-yl)biphenyl-4-yl]methyl}-6-(2,2,2-trifluoroethyl)thieno[2,3-d]pyrimidine-2,4(1H,3H)-dione]",1.5,,36
"CCc1cc2c(=O)n(CC(=O)c3nc4ccccc4n3C)c(=O)n(Cc3ccc(-c4ccccc4-c4noc(=O)[nH]4)cc3)c2s1 [Ex. 140, 6-ethyl-3-[2-(1-methyl-1H-benzoimidazol-2-yl)-2-oxoethyl]-1-{[2′-(5-oxo-4,5-dihydro-1,2,4-oxadiazol-3-yl)biphenyl-4-yl]methyl}thieno[2,3-d]pyrimidine-2,4(1H,3H)-dione]",1.7,,26
"CCc1cc2c(=O)n(C/C(=N/OC)C(C)(C)C)c(=O)n(Cc3ccc(-c4ccccc4-c4noc(=O)[nH]4)cc3)c2s1 [Ex. 142, 6-ethyl-3-[2-(methoxyimino)-3,3-dimethylbutyl]-1-{[2′-(5-oxo-4,5-dihydro-1,2,4-oxadiazol-3-yl)biphenyl-4-yl]methyl}thieno[2,3-d]pyrimidine-2,4(1H,3H)-dione]",1.5,,38
"CC(C)(C)C(O)Cn1c(=O)c2cc(C3CC3)sc2n(Cc2ccc(-c3ccccc3-c3noc(=O)[nH]3)cc2)c1=O (stereo not shown) [Ex. 143, 6-cyclopropyl-3-(2-hydroxy-3,3-dimethylbutyl)-1-{[2′-(5-oxo-4,5-dihydro-1,2,4-oxadiazol-3-yl)biphenyl-4-yl]methyl}thieno[2,3-d]pyrimidine-2,4(1H,3H)-dione]",1.4,,45
"CCc1cc2c(=O)n(CC3(C)COC3)c(=O)n(Cc3ccc(-c4ccccc4-c4noc(=O)[nH]4)cc3)c2s1 [Ex. 144, 6-ethyl-3-[(3-methyloxetan-3-yl)methyl]-1-{[2′-(5-oxo-4,5-dihydro-1,2,4-oxadiazol-3-yl)biphenyl-4-yl]methyl}thieno[2,3-d]pyrimidine-2,4(1H,3H)-dione]",1.7,,40
"CCc1cc2c(=O)n(CC3(O)CCOCC3)c(=O)n(Cc3ccc(-c4ccccc4-c4noc(=O)[nH]4)cc3)c2s1 [Ex. 145, 6-ethyl-3-[(4-hydroxytetrahydro-2H-pyran-4-yl)methyl]-1-{[2′-(5-oxo-4,5-dihydro-1,2,4-oxadiazol-3-yl)biphenyl-4-yl]methyl}thieno[2,3-d]pyrimidine-2,4(1H,3H)-dione]",1.7,,36
"CCc1cc2c(=O)n(CC(=O)C(C)(C)COC(C)=O)c(=O)n(Cc3ccc(-c4ccccc4-c4noc(=O)[nH]4)cc3)c2s1 [Ex. 148, 4-[6-ethyl-2,4-dioxo-1-{[2′-(5-oxo-4,5-dihydro-1,2,4-oxadiazol-3-yl)biphenyl-4-yl]methyl}-1,4-dihydrothieno[2,3-d]pyrimidin-3(2H)-yl]-2,2-dimethyl-3-oxobutyl acetate]",1.5,,33
"CCc1cc2c(=O)n(CC(O)C(C)(C)C)c(=O)n(Cc3ccc(-c4ccccc4-c4noc(=O)[nH]4)cc3)c2s1 (stereo not shown) [Ex. 149, 6-ethyl-3-(2-hydroxy-3,3-dimethylbutyl)-1-{[2′-(5-oxo-4,5-dihydro-1,2,4-oxadiazol-3-yl)biphenyl-4-yl]methyl}thieno[2,3-d]pyrimidine-2,4(1H,3H)-dione]",1.8,,50
"CCc1cc2c(=O)n(CC(=O)c3ccc(Cl)s3)c(=O)n(Cc3ccc(-c4ccccc4-c4noc(=O)[nH]4)cc3)c2s1 [Ex. 150, 3-[2-(5-chloro-2-thienyl)-2-oxoethyl]-6-ethyl-1-{[2′-(5-oxo-4,5-dihydro-1,2,4-oxadiazol-3-yl)biphenyl-4-yl]methyl}thieno[2,3-d]pyrimidine-2,4(1H,3H)-dione]",1.5,,33
"CCc1cc2c(=O)n(CC(O)c3ccc(OC)cc3)c(=O)n(Cc3ccc(-c4ccccc4-c4noc(=O)[nH]4)cc3F)c2s1 (stereo not shown) [Ex. 152, 6-ethyl-1-{[3-fluoro-2′-(5-oxo-4,5-dihydro-1,2,4-oxadiazol-3-yl)biphenyl-4-yl]methyl}-3-[2-hydroxy-2-(4-methoxyphenyl)ethyl]thieno[2,3-d]pyrimidine-2,4(1H,3H)-dione]",1.5,,40
"CCc1cc2c(=O)n(CC(OC(C)=O)c3ccc(OC)cc3)c(=O)n(Cc3ccc(-c4ccccc4-c4noc(=O)[nH]4)cc3F)c2s1 (stereo not shown) [Ex. 153, 2-[6-ethyl-1-{[3-fluoro-2′-(5-oxo-4,5-dihydro-1,2,4-oxadiazol-3-yl)biphenyl-4-yl]methyl}-2,4-dioxo-1,4-dihydrothieno[2,3-d]pyrimidin-3(2H)-yl]-1-(4-methoxyphenyl)ethyl acetate]",1.3,,39
"CCc1cc2c(=O)n(CC(C)(C)C)c(=O)n(Cc3ccc(-c4ccccc4-c4noc(=O)[nH]4)cc3)c2s1 [Ex. 154, 3-(2,2-dimethylpropyl)-6-ethyl-1-{[2′-(5-oxo-4,5-dihydro-1,2,4-oxadiazol-3-yl)biphenyl-4-yl]methyl}thieno[2,3-d]pyrimidine-2,4(1H,3H)-dione]",1.9,,51
"CCc1cc2c(=O)n(CC(=O)c3ccc(OC)c(F)c3)c(=O)n(Cc3ccc(-c4ccccc4-c4noc(=O)[nH]4)cc3F)c2s1 [Ex. 157, 6-ethyl-3-[2-(3-fluoro-4-methoxyphenyl)-2-oxoethyl]-1-{[3-fluoro-2′-(5-oxo-4,5-dihydro-1,2,4-oxadiazol-3-yl)biphenyl-4-yl]methyl}thieno[2,3-d]pyrimidine-2,4(1H,3H)-dione]",1.4,,35
"CCCc1cc2c(=O)n(CC(=O)c3ccc(OC)cc3)c(=O)n(Cc3ccc(-c4ccccc4-c4noc(=O)[nH]4)cc3F)c2s1 [Ex. 158, 1-{[3-fluoro-2′-(5-oxo-4,5-dihydro-1,2,4-oxadiazol-3-yl)biphenyl-4-yl]methyl}-3-[2-(4-methoxyphenyl)-2-oxoethyl]-6-propylthieno[2,3-d]pyrimidine-2,4(1H,3H)-dione]",1.7,,30
"CCc1cc2c(=O)n(-c3ccc(OC(C)C)cc3)c(=O)n(Cc3ccc(-c4ccccc4-c4noc(=O)[nH]4)cc3F)c2s1 [Ex. 180, 6-ethyl-1-{[3-fluoro-2′-(5-oxo-4,5-dihydro-1,2,4-oxadiazol-3-yl)biphenyl-4-yl]methyl}-3-(4-isopropoxyphenyl)thieno[2,3-d]pyrimidine-2,4(1H,3H)-dione]",1.6,,50
"CCc1cc2c(=O)n(-c3ccc4c(c3)CC(C)(C)O4)c(=O)n(Cc3ccc(-c4ccccc4-c4noc(=O)[nH]4)cc3F)c2s1 [Ex. 181, 3-(2,2-dimethyl-2,3-dihydro-1-benzofuran-5-yl)-6-ethyl-1-{[3-fluoro-2′-(5-oxo-4,5-dihydro-1,2,4-oxadiazol-3-yl)biphenyl-4-yl]methyl}thieno[2,3-d]pyrimidine-2,4(1H,3H)-dione]",1.2,,55
